From US12661410B2, “Compounds for targeted degradation of RET” (C4 Therapeutics, Inc., priority 2020, dated 2026)
Changes are numbered by the printed parent chain. Where two headings read alike, the source gives them in different places.

Experiments:
RET(KD: 658-1114 G810R) = biological target: T1, RET(KD: 658-1114 G810R) (Homo sapiens, UniProt P07949, G810R); test: HiBiT-Degradation, RET G810R degradation assay (Nano-Glo HiBiT Lytic), 293T.165 cells; assay type: cell-based; details: for Emax / DC50: 6.0 hours
T1 construct: 658-1114; expressed in transfected cells; host or cells: 293T.165 (293T cells, generated in-house)
T1 sequence (P07949 658-1114 G810R): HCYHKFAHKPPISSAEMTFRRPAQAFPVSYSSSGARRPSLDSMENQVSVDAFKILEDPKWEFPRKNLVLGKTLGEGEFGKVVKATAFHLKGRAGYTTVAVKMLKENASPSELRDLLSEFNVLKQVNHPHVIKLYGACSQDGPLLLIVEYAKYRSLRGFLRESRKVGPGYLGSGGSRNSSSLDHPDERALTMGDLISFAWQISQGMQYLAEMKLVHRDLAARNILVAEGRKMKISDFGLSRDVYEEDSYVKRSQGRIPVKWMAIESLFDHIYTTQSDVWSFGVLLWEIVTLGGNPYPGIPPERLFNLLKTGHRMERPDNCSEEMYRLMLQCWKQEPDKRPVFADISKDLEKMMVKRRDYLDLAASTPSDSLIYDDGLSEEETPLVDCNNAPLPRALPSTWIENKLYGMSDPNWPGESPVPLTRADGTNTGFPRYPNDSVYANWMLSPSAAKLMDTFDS
How it was run: (§1)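 HEK293T lines stably expressing HiBiT-tagged RET kinase domain (WT: 293T.144; G810R: 293T.165) were treated with degraders for 6 h in duplicate, 11-point half-log series from 10 μM top dose. Lysis with Nano-Glo HiBiT Lytic reagent, luminescence read; DC50 and Emax (% remaining protein) derived from dose-response curves.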

RET (658-1114) = biological target: T2, RET (658-1114) (Homo sapiens, UniProt P07949); test: HiBiT-Degradation, RET wild-type degradation assay (Nano-Glo HiBiT Lytic), 293T.144 cells; assay type: cell-based; details: for Emax / DC50: 6.0 hours
T2 construct: 658-1114; expressed in transfected cells; host or cells: 293T.144 (293T cells, generated in-house)
T2 sequence (P07949 658-1114): T1 sequence (P07949 658-1114 G810R) with R153G
How it was run: as §1

[1] = % remaining protein, read-out: 293T.165 RET(KD: 658-1114 G810R) 6.0 hours (Emax)
[2] = half-maximal degradation concentration, read-out: 293T.165 RET(KD: 658-1114 G810R) 6.0 hours (DC50)
[3] = % remaining protein, read-out: 293T.144 RET (658-1114) 6.0 hours (Emax)
[4] = half-maximal degradation concentration, read-out: 293T.144 RET (658-1114) 6.0 hours (DC50)

Compound | 293T.165 RET(KD: 658-1114 G810R) 6.0 hours (IP) [nM] (RET(KD: 658-1114 G810R)) | Emax (RET(KD: 658-1114 G810R); [1]) [%] | DC50 (RET(KD: 658-1114 G810R); [2]) [µM] | 293T.144 RET (658-1114) 6.0 hours (IP) [nM] (RET (658-1114)) | Emax (RET (658-1114); [3]) [%] | DC50 (RET (658-1114); [4]) [µM] | HiBiT-Degradation 293T.165 RET(KD: 658-1114 G810R) 6.0 hours (IP) [nM] (RET(KD: 658-1114 G810R); RET G810R) | DC50 (RET(KD: 658-1114 G810R); RET G810R, read-out: HiBiT-Degradation 293T.165 RET(KD: 658-1114 G810R) 6.0 hours (DC50)) [µM] | Emax (RET(KD: 658-1114 G810R); RET G810R, read-out: HiBiT-Degradation 293T.165 RET(KD: 658-1114 G810R) 6.0 hours (Emax)) [%] | HiBiT-Degradation 293T.144 RET (658-1114) 6.0 hours (IP) [nM] (RET (658-1114); RET wild-type) | DC50 (RET (658-1114); RET wild-type, read-out: HiBiT-Degradation 293T.144 RET (658-1114) 6.0 hours (DC50)) [µM] | Emax (RET (658-1114); RET wild-type, read-out: HiBiT-Degradation 293T.144 RET (658-1114) 6.0 hours (Emax)) [%]
CCC1(C(=O)NC(C)C)CCN(c2ccc(-c3nc(-c4cnn(C5CCN(C(=O)CC6(O)CC7(CN(c8ccc(NC9CCC(=O)NC9=O)cc8F)C7)C6)CC5)c4)cn4ncc(C#N)c34)cn2)CC1 (centres unmarked) [Compound 97, 1-[5-[3-cyano-6-[1-[1-[2-[2-[4-[(2,6-dioxo-3-piperidyl)amino]-2-fluoro-phenyl]-6-hydroxy-2-azaspiro[3.3]heptan-6-yl]acetyl]-4-piperidyl]pyrazol-4-yl]pyrazolo[1,5-a]pyrazin-4-yl]-2-pyridyl]-4-ethyl-N-isopropyl-piperidine-4-carboxamide] | ++++ (<50 nM = ++++) | < 50 | < 0.1 | ++++ (<50 nM = ++++) | < 30 | < 0.05 | – | – | – | – | – | –
Cc1ccnc(C2CCN(c3ccc(-c4nc(-c5cnn(C6CCN(C(=O)CC7(O)CCN(c8ccc(NC9CCC(=O)NC9=O)cc8F)CC7)CC6)c5)cn5ncc(C#N)c45)cn3)CC2)n1 (centres unmarked) [Compound 115, 6-[1-[1-[2-[1-[4-[(2,6-dioxo-3-piperidyl)amino]-2-fluoro-phenyl]-4-hydroxy-4-piperidyl]acetyl]-4-piperidyl]pyrazol-4-yl]-4-[6-[4-(4-methylpyrimidin-2-yl)-1-piperidyl]-3-pyridyl]pyrazolo[1,5-a]pyrazine-3-carbonitrile] | ++++ (<50 nM = ++++) | < 30 | < 0.05 | ++++ (<50 nM = ++++) | < 30 | < 0.05 | – | – | – | – | – | –
N#Cc1cnn2cc(-c3cnn(C4CCN(C(=O)CC5(O)CCN(c6ccc(NC7CCC(=O)NC7=O)cc6F)CC5)CC4)c3)nc(-c3ccc(N4CCC(Oc5ccccn5)CC4)nc3)c12 (centres unmarked) [Compound 109, 6-[1-[1-[2-[1-[4-[(2,6-dioxo-3-piperidyl)amino]-2-fluoro-phenyl]-4-hydroxy-4-piperidyl]acetyl]-4-piperidyl]pyrazol-4-yl]-4-[6-[4-(2-pyridyloxy)-1-piperidyl]-3-pyridyl]pyrazolo[1,5-a]pyrazine-3-carbonitrile] | ++++ (<50 nM = ++++) | < 30 | < 0.05 | ++++ (<50 nM = ++++) | < 30 | < 0.05 | – | – | – | – | – | –
CCC1(C(=O)NC(C)C)CCN(c2ccc(-c3cc(-c4cnn([C@H]5CC[C@@H](N6CCC(c7ccc(NC8CCC(=O)NC8=O)cc7F)CC6)CC5)c4)cn4ncc(C#N)c34)cn2)CC1 (some centres unmarked) [Compound 88, 1-(5-(3-cyano-6-(1-((1s, 4s)-4-(4-(4-((2,6-dioxopiperidin-3-yl)amino)-2-fluorophenyl)piperidin-1-yl)cyclohexyl)-1H-pyrazol-4-yl)pyrazolo[1,5-a]pyridin-4-yl)pyridin-2-yl)-4-ethyl-N-isopropylpiperidine-4-carboxamide] | – | < 50 | < 1 | – | – | – | ++++ (< 50 nM = ++++) | < 1 | < 50 | ++++ (< 50 nM = ++++) | < 0.05 | < 30
CCC1(C(=O)NC2CCC2)CCN(c2ccc(-c3nc(-c4cnn([C@H]5CC[C@H](N6CCN(c7cc(OC)c(N[C@@H]8CCC(=O)NC8=O)cc7F)CC6)CC5)c4)cn4ncc(C#N)c34)cn2)CC1 (single isomer, unassigned) [Compound 135] | ++++ (<50 nM = ++++) | < 30 | < 0.05 | ++++ (<50 nM = ++++) | < 30 | < 0.05 | – | – | – | – | – | –
CCC1(C(=O)NC(C)C)CCN(c2ccc(-c3nc(-c4cnn(C5CCN(C(=O)CC6(O)CCN(c7ccc(NC8CCC(=O)NC8=O)cc7C(F)F)CC6)CC5)c4)cn4ncc(C#N)c34)cn2)CC1 (centres unmarked) [Compound 96, 1-[5-[3-cyano-6-[1-[1-[2-[1-[2-(difluoromethyl)-4-[(2,6-dioxo-3-piperidyl)amino]phenyl]-4-hydroxy-4-piperidyl]acetyl]-4-piperidyl]pyrazol-4-yl]pyrazolo[1,5-a]pyrazin-4-yl]-2-pyridyl]-4-ethyl-N-isopropyl-piperidine-4-carboxamide] | +++ (<100 nM = +++) | < 50 | < 0.1 | ++++ (<50 nM = ++++) | < 30 | < 0.05 | – | – | – | – | – | –
COc1cc(N2CCN([C@H]3CC[C@H](n4cc(-c5cn6ncc(C#N)c6c(-c6ccc(N7CC8COCC(C7)N8C(=O)OC(C)(C)C)nc6)n5)cn4)CC3)CC2)c(F)cc1NC1CCC(=O)NC1=O (relative stereo) [Compound 163, tert-butyl 7-[5-[3-cyano-6-[1-[4-[4-[4-[(2,6-dioxo-3-piperidyl)amino]-2-fluoro-5-methoxy-phenyl]piperazin-1-yl]cyclohexyl]pyrazol-4-yl]pyrazolo[1,5-a]pyrazin-4-yl]-2-pyridyl]-3-oxa-7,9-diazabicyclo[3.3.1]nonane-9-carboxylate] | ++++ (<50 nM = ++++) | < 30 | < 0.1 | ++++ (<50 nM = ++++) | < 30 | < 0.05 | – | – | – | – | – | –
COc1cc(N2CCN(C3CCC(n4cc(-c5cn6ncc(C#N)c6c(-c6ccc(N7CC8COCC(C7)N8Cc7ccccn7)nc6)n5)cn4)CC3)CC2)c(F)cc1NC1CCC(=O)NC1=O (centres unmarked) [Compound 205, 6-[1-[4-[4-[4-[(2,6-dioxo-3-piperidyl)amino]-2-fluoro-5-methoxy-phenyl]piperazin-1-yl]cyclohexyl]pyrazol-4-yl]-4-[6-[9-(2-pyridylmethyl)-3-oxa-7,9-diazabicyclo[3.3.1]nonan-7-yl]-3-pyridyl]pyrazolo[1,5-a]pyrazine-3-carbonitrile] | +++ (<100 nM = +++) | < 30 | < 0.1 | ++++ (<50 nM = ++++) | < 30 | < 0.05 | – | – | – | – | – | –
CCC1(C(=O)NC(C)C)CCN(c2ccc(-c3cc(-c4cnn(C5CC6(C5)CN(C5CCN(c7ccc(NC8CCC(=O)NC8=O)cc7F)CC5)C6)c4)cn4ncc(C#N)c34)cn2)CC1 (centres unmarked) [Compound 199, 1-(5-(3-cyano-6-(1-(2-(1-(4-((2,6-dioxopiperidin-3-yl)amino)-2-fluorophenyl)piperidin-4-yl)-2-azaspiro[3.3]heptan-6-yl)-1H-pyrazol-4-yl)pyrazolo[1,5-a]pyridin-4-yl)pyridin-2-yl)-4-ethyl-N-isopropylpiperidine-4-carboxamide] | +++ (<100 nM = +++) | < 30 | < 0.05 | ++++ (<50 nM = ++++) | < 30 | < 0.05 | – | – | – | – | – | –
